In PubChem BioAssay (NCI):
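Method: 48-hour compound exposure of cells in 96-well plates, five concentrations, linear interpolation of endpoints. The concentration for full growth arrest is given as TGI.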

Experiments:
Experiment in all cases: NCI anticancer screen, dose series, 48 h
U251 CNS = tested on: U251 CNS
UO-31 renal = tested on: UO-31 renal
MDA-N = tested on: MDA-N
HCT-15 colon = tested on: HCT-15 colon
NCI-H460 lung = tested on: NCI-H460 lung
NCI-H226 lung = tested on: NCI-H226 lung
SN12C renal = tested on: SN12C renal
TK-10 renal = tested on: TK-10 renal
CCRF-CEM leukemia = tested on: CCRF-CEM leukemia
CAKI-1 renal = tested on: CAKI-1 renal
HCC-2998 colon = tested on: HCC-2998 colon
SF-539 CNS = tested on: SF-539 CNS
COLO 205 colon = tested on: COLO 205 colon
HT29 colon = tested on: HT29 colon
MALME-3M melanoma = tested on: MALME-3M melanoma
SK-MEL-2 melanoma = tested on: SK-MEL-2 melanoma
OVCAR-3 ovarian = tested on: OVCAR-3 ovarian
PC-3 prostate = tested on: PC-3 prostate
SK-OV-3 ovarian = tested on: SK-OV-3 ovarian
OVCAR-8 ovarian = tested on: OVCAR-8 ovarian
OVCAR-5 ovarian = tested on: OVCAR-5 ovarian
A498 renal = tested on: A498 renal
SF-295 CNS = tested on: SF-295 CNS
MDA-MB-231 breast = tested on: MDA-MB-231 breast
HOP-62 NSCLC = tested on: HOP-62 NSCLC
DU-145 prostate = tested on: DU-145 prostate
OVCAR-4 ovarian = tested on: OVCAR-4 ovarian
NCI-H23 lung = tested on: NCI-H23 lung
LOX IMVI melanoma = tested on: LOX IMVI melanoma
SF-268 CNS = tested on: SF-268 CNS
M14 melanoma = tested on: M14 melanoma
HOP-92 NSCLC = tested on: HOP-92 NSCLC
NCI/ADR-RES ovarian = tested on: NCI/ADR-RES ovarian
786-0 renal = tested on: 786-0 renal
EKVX NSCLC = tested on: EKVX NSCLC
KM12 colon = tested on: KM12 colon
HCT-116 colon = tested on: HCT-116 colon
SW-620 colon = tested on: SW-620 colon
HL-60(TB) leukemia = tested on: HL-60(TB) leukemia
SK-MEL-28 melanoma = tested on: SK-MEL-28 melanoma
RPMI-8226 leukemia = tested on: RPMI-8226 leukemia
RXF 393 renal = tested on: RXF 393 renal
MOLT-4 leukemia = tested on: MOLT-4 leukemia
MDA-MB-435 = tested on: MDA-MB-435
SNB-75 CNS = tested on: SNB-75 CNS
SNB-19 CNS = tested on: SNB-19 CNS
BT-549 breast = tested on: BT-549 breast
SK-MEL-5 melanoma = tested on: SK-MEL-5 melanoma
A549 NSCLC = tested on: A549 NSCLC
HS 578T breast = tested on: HS 578T breast
K-562 leukemia = tested on: K-562 leukemia
ACHN renal = tested on: ACHN renal
MCF7 breast = tested on: MCF7 breast
UACC-257 melanoma = tested on: UACC-257 melanoma
UACC-62 melanoma = tested on: UACC-62 melanoma
IGROV1 ovarian = tested on: IGROV1 ovarian
SR leukemia = tested on: SR leukemia
NCI-H522 lung = tested on: NCI-H522 lung

CC(C)C(=O)OCC1CCCN2CCCCC12 (stereo unspecified)
TGI (U251 CNS): > 100 µM | TGI (UO-31 renal): > 100 µM | TGI (MDA-N): > 100 µM | TGI (HCT-15 colon): > 100 µM | TGI (NCI-H460 lung): > 100 µM | TGI (NCI-H226 lung): > 100 µM | TGI (SN12C renal): > 100 µM | TGI (TK-10 renal): > 100 µM | TGI (CCRF-CEM leukemia): > 100 µM | TGI (CAKI-1 renal): > 100 µM | TGI (HCC-2998 colon): > 100 µM | TGI (SF-539 CNS): > 100 µM | TGI (COLO 205 colon): > 100 µM | TGI (HT29 colon): 97.6 µM | TGI (MALME-3M melanoma): > 100 µM | TGI (SK-MEL-2 melanoma): > 100 µM | TGI (OVCAR-3 ovarian): > 100 µM | TGI (PC-3 prostate): > 100 µM | TGI (SK-OV-3 ovarian): > 100 µM | TGI (OVCAR-8 ovarian): > 100 µM | TGI (OVCAR-5 ovarian): > 100 µM | TGI (A498 renal): > 100 µM | TGI (SF-295 CNS): > 100 µM | TGI (MDA-MB-231 breast): > 100 µM | TGI (HOP-62 NSCLC): > 100 µM | TGI (DU-145 prostate): > 100 µM | TGI (OVCAR-4 ovarian): > 100 µM | TGI (NCI-H23 lung): > 100 µM | TGI (LOX IMVI melanoma): > 100 µM | TGI (SF-268 CNS): > 100 µM | TGI (M14 melanoma): > 100 µM | TGI (HOP-92 NSCLC): > 100 µM | TGI (NCI/ADR-RES ovarian): > 100 µM | TGI (786-0 renal): > 100 µM | TGI (EKVX NSCLC): > 100 µM | TGI (KM12 colon): > 100 µM | TGI (HCT-116 colon): > 100 µM | TGI (SW-620 colon): > 100 µM | TGI (HL-60(TB) leukemia): > 100 µM | TGI (SK-MEL-28 melanoma): > 100 µM | TGI (RPMI-8226 leukemia): > 100 µM | TGI (RXF 393 renal): > 100 µM | TGI (MOLT-4 leukemia): > 100 µM | TGI (MDA-MB-435): > 100 µM | TGI (SNB-75 CNS): > 100 µM | TGI (SNB-19 CNS): > 100 µM | TGI (BT-549 breast): > 100 µM | TGI (SK-MEL-5 melanoma): > 100 µM | TGI (A549 NSCLC): > 100 µM | TGI (HS 578T breast): > 100 µM | TGI (K-562 leukemia): > 100 µM | TGI (ACHN renal): > 100 µM | TGI (MCF7 breast): > 100 µM | TGI (UACC-257 melanoma): > 100 µM | TGI (UACC-62 melanoma): > 100 µM

O=C(N=Nc1c(O)[nH]c2c(Cl)cc(Cl)cc12)c1ccccc1O
TGI (U251 CNS): 21 µM | TGI (UO-31 renal): 24.3 µM | TGI (MDA-N): 28.1 µM | TGI (HCT-15 colon): 29.2 µM | TGI (NCI-H460 lung): 27.6 µM | TGI (NCI-H226 lung): 29.4 µM | TGI (SN12C renal): 30.5 µM | TGI (TK-10 renal): 29.3 µM | TGI (CCRF-CEM leukemia): 46.9 µM | TGI (CAKI-1 renal): 31.1 µM | TGI (HCC-2998 colon): 31.1 µM | TGI (SF-539 CNS): 29.6 µM | TGI (COLO 205 colon): 38.5 µM | TGI (HT29 colon): 34.8 µM | TGI (MALME-3M melanoma): 27.1 µM | TGI (SK-MEL-2 melanoma): 26.1 µM | TGI (OVCAR-3 ovarian): 25.1 µM | TGI (PC-3 prostate): 29 µM | TGI (SK-OV-3 ovarian): 30.6 µM | TGI (OVCAR-8 ovarian): 25.2 µM | TGI (OVCAR-5 ovarian): 32.4 µM | TGI (A498 renal): 30.8 µM | TGI (SF-295 CNS): 28.4 µM | TGI (MDA-MB-231 breast): 30.1 µM | TGI (HOP-62 NSCLC): 29.2 µM | TGI (OVCAR-4 ovarian): 26.9 µM | TGI (NCI-H23 lung): 33.1 µM | TGI (IGROV1 ovarian): 26.9 µM | TGI (LOX IMVI melanoma): 28 µM | TGI (M14 melanoma): 30.3 µM | TGI (HOP-92 NSCLC): 28.6 µM | TGI (NCI/ADR-RES ovarian): 26.3 µM | TGI (786-0 renal): 26.3 µM | TGI (EKVX NSCLC): 26.3 µM | TGI (KM12 colon): 29.5 µM | TGI (HCT-116 colon): 27.3 µM | TGI (SW-620 colon): 34.5 µM | TGI (HL-60(TB) leukemia): 43.4 µM | TGI (SK-MEL-28 melanoma): 30 µM | TGI (RXF 393 renal): 25.3 µM | TGI (MOLT-4 leukemia): 31 µM | TGI (MDA-MB-435): 26.9 µM | TGI (SNB-75 CNS): 22.8 µM | TGI (SNB-19 CNS): 27.8 µM | TGI (BT-549 breast): 27.7 µM | TGI (SK-MEL-5 melanoma): 28.7 µM | TGI (A549 NSCLC): 27.4 µM | TGI (HS 578T breast): 29 µM | TGI (SR leukemia): 23.7 µM | TGI (ACHN renal): 25.8 µM | TGI (MCF7 breast): 41 µM | TGI (UACC-257 melanoma): 33.2 µM | TGI (UACC-62 melanoma): 24.8 µM

OCCN1c2ccccc2Sc2ccccc21
TGI (U251 CNS): > 10 µM | TGI (MDA-N): > 10 µM | TGI (HCT-15 colon): > 10 µM | TGI (SN12C renal): > 10 µM | TGI (TK-10 renal): > 10 µM | TGI (CAKI-1 renal): > 10 µM | TGI (HCC-2998 colon): > 10 µM | TGI (SF-539 CNS): > 10 µM | TGI (COLO 205 colon): > 10 µM | TGI (HT29 colon): > 10 µM | TGI (MALME-3M melanoma): > 10 µM | TGI (OVCAR-3 ovarian): > 10 µM | TGI (PC-3 prostate): > 10 µM | TGI (SK-OV-3 ovarian): > 10 µM | TGI (OVCAR-8 ovarian): > 10 µM | TGI (OVCAR-5 ovarian): > 10 µM | TGI (SF-295 CNS): > 10 µM | TGI (MDA-MB-231 breast): > 10 µM | TGI (HOP-62 NSCLC): > 10 µM | TGI (DU-145 prostate): > 10 µM | TGI (OVCAR-4 ovarian): > 10 µM | TGI (NCI-H23 lung): > 10 µM | TGI (LOX IMVI melanoma): > 10 µM | TGI (SF-268 CNS): > 10 µM | TGI (M14 melanoma): > 10 µM | TGI (HOP-92 NSCLC): > 10 µM | TGI (NCI/ADR-RES ovarian): > 10 µM | TGI (786-0 renal): > 10 µM | TGI (KM12 colon): > 10 µM | TGI (HCT-116 colon): > 10 µM | TGI (SW-620 colon): > 10 µM | TGI (HL-60(TB) leukemia): > 10 µM | TGI (SK-MEL-28 melanoma): > 10 µM | TGI (RPMI-8226 leukemia): > 10 µM | TGI (MOLT-4 leukemia): > 10 µM | TGI (MDA-MB-435): > 10 µM | TGI (SNB-75 CNS): > 10 µM | TGI (SNB-19 CNS): > 10 µM | TGI (BT-549 breast): > 10 µM | TGI (SK-MEL-5 melanoma): > 10 µM | TGI (A549 NSCLC): > 10 µM | TGI (HS 578T breast): > 10 µM | TGI (K-562 leukemia): > 10 µM | TGI (SR leukemia): > 10 µM | TGI (ACHN renal): > 10 µM | TGI (NCI-H522 lung): > 10 µM | TGI (MCF7 breast): > 10 µM | TGI (UACC-257 melanoma): > 10 µM
